In ChEMBL document CHEMBL1147880, “beta-Alkylthio indolyl carbinols: potent nonsteroidal antiandrogens with oral efficacy in a prostate cancer model” (Bioorg Med Chem Lett, 2007):
The source made the active and inactive calls. No cut-off for these calls is given here.

Legend:
Rattus norvegicus [1] = experiment: Reduction of prostate weight in orally dosed immature rat; type: functional
Rattus norvegicus [2] = experiment: Reduction of prostate weight in orally dosed mature rat; type: functional; conditions: Prostate gland, po, read-out: ID50 (the source's name)
[3] = Half life in mature rat; type: ADME, organism-based; conditions: in vivo
Rattus norvegicus [4] = experiment: Reduction of prostate weight in orally dosed castrated mature rat; type: functional, organism-based; conditions: Prostate gland
[5] = target: T1, Androgen receptor (Homo sapiens) (UniProt P10275); experiment: Binding affinity to AR expressed in COS cells by whole-cell binding assay; type: cell-based
T1 sequence (whole entry): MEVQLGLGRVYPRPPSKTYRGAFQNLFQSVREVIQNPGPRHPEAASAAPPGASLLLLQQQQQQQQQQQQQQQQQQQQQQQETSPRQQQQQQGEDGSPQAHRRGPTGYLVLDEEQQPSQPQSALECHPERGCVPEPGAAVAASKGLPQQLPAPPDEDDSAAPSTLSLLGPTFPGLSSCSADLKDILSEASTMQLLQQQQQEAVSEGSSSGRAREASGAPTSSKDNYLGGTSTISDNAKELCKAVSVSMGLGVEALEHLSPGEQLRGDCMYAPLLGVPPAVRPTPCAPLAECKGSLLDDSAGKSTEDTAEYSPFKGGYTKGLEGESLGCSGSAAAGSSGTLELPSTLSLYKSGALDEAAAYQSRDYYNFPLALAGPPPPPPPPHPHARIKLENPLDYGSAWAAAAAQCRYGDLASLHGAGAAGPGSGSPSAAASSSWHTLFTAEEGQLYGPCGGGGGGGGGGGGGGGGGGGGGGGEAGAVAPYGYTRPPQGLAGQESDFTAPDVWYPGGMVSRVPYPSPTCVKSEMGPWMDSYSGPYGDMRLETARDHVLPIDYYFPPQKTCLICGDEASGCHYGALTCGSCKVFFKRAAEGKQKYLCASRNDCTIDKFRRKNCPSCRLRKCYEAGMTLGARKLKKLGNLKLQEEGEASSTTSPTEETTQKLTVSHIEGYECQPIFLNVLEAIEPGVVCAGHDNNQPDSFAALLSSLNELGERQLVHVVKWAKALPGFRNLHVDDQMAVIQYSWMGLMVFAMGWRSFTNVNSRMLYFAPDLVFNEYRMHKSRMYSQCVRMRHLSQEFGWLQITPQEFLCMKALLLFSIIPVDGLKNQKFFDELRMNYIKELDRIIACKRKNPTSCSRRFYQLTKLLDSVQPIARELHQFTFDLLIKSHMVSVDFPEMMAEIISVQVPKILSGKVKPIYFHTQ

[6] = Oral bioavailability in mature rat; type: ADME, organism-based; conditions: in vivo
LNCaP = experiment: Inhibition of tumor growth in LNCaP cells xenografted mouse at 100 mg/kg, po after 51 days; type: functional, organism-based; parameters: dose 100 mg/kg; conditions: Homo sapiens

Row | Compound | Activity (Rattus norvegicus [1]) [%] | also measured
1 | CCSC[C@@](C)(O)c1cc2cc(C#N)c(C(F)(F)F)cc2[nH]1 |  | Activity (Rattus norvegicus [1]; Prostate gland): inactive
2 | CCS(=O)(=O)C[C@](C)(O)c1[nH]c2cc(C(F)(F)F)c(C#N)cc2c1C |  | ED50 (Rattus norvegicus [2]): > 30 mg/kg; half-life [3]: 2 h; ID50 (Rattus norvegicus [1]): 2.4 mg/day
3 | CCSCC(C)(O)Cc1cc2cc([N+](=O)[O-])c(C(F)(F)F)cc2[nH]1 (configuration not stated) |  | Activity (Rattus norvegicus [1]; Prostate gland): inactive
4 | CCSC[C@](C)(O)c1cc2cc(C#N)ncc2[nH]1 |  | Activity (Rattus norvegicus [1]; Prostate gland): inactive
5 | CCSCC(C)(O)c1cc2cc([N+](=O)[O-])cc(C(F)(F)F)c2[nH]1 (configuration not stated) | 66 | 
6 | CCCSC[C@@](C)(O)c1cc2cc([N+](=O)[O-])c(C(F)(F)F)cc2[nH]1 | 40 | 
7 | CCSC[C@](O)(CC)c1cc2cc([N+](=O)[O-])c(C(F)(F)F)cc2[nH]1 | 73 | 
8 | CCSC[C@@](C)(O)c1cc2cc([N+](=O)[O-])c(C(F)(F)F)cc2[nH]1 | 75 | 
9 | CCSC[C@](C)(O)c1[nH]c2cc(C(F)(F)F)c(C#N)cc2c1C | 61 | ED50 (Rattus norvegicus [2]): > 60 mg/kg
10 | CCSC[C@](C)(O)c1cc2cc(F)c(C(F)(F)F)cc2[nH]1 | 58 | 
11 | CCSCC(O)(CSCC)c1cc2cc([N+](=O)[O-])c(C(F)(F)F)cc2[nH]1 | 32 | 
12 | CCSC[C@](C)(O)c1cc2cc(C#N)c(C(F)(F)F)cc2n1CC | 55 | 
13 | O=[N+]([O-])c1cc2cc(C3(O)CCSC3)[nH]c2cc1C(F)(F)F (configuration not stated) | 49 | 
14 | CCSC[C@](C)(O)c1cc2cc(C#N)c(C(F)(F)F)cc2n1COC | 37 | 
15 | C[C@@](O)(CSCc1cccs1)c1cc2cc([N+](=O)[O-])c(C(F)(F)F)cc2[nH]1 | 28 | 
16 | CC(C)SC[C@@](C)(O)c1cc2cc([N+](=O)[O-])c(C(F)(F)F)cc2[nH]1 | 42 | 
17 | CCSC[C@](C)(O)c1cc2cc(C#N)c(C(F)(F)F)cc2n1CC#N |  | Activity (Rattus norvegicus [1]; Prostate gland): inactive
18 | CCCCSC[C@@](C)(O)c1cc2cc([N+](=O)[O-])c(C(F)(F)F)cc2[nH]1 | 40 | 
19 | CCSC[C@](C)(O)c1cc2cc([N+](=O)[O-])ccc2[nH]1 | 34 | 
20 | CCSC[C@@](C)(OC)c1cc2cc([N+](=O)[O-])c(C(F)(F)F)cc2[nH]1 | 76 | 
21 | CCSC[C@](C)(O)c1cc2cc(Cl)c(Cl)cc2[nH]1 |  | Activity (Rattus norvegicus [1]; Prostate gland): inactive
22 | CCSC[C@](C)(O)c1cc2cc(C#N)ccc2[nH]1 |  | Activity (Rattus norvegicus [1]; Prostate gland): inactive
23 | CCSC[C@](C)(O)c1cc2cc(C#N)c(C(F)(F)F)cc2[nH]1 [listing 1 of 2 here] | 100 | 
24 | CCSC[C@](C)(O)c1cc2cc(Cl)ccc2[nH]1 |  | Activity (Rattus norvegicus [1]; Prostate gland): inactive

Row | Compound | Activity (Rattus norvegicus [1]) [%] | also measured
25 | CCSCC(O)c1cc2cc([N+](=O)[O-])c(C(F)(F)F)cc2[nH]1 (configuration not stated) | 30 | 
26 | CCSC[C@](C)(O)c1cc2ccccc2[nH]1 | 26 | 
27 | CCSC[C@](C)(O)c1cc2cc(Cl)c(C(F)(F)F)cc2[nH]1 | 54 | 
28 | CCS(=O)(=O)C[C@](C)(O)c1cc2cc(C#N)c(C(F)(F)F)cc2[nH]1 | 100 | ED50 (Rattus norvegicus [2]): 22 mg/kg; Activity (Rattus norvegicus [4]): inactive; half-life [3]: 52 h; ID50 (Rattus norvegicus [1]): 0.89 mg/day; Activity [5]: Active; bioavailability [6]: 68%; Activity (LNCaP): Active
29 | CCSC[C@](C)(O)c1cc2cc(F)c(Cl)cc2[nH]1 | 60 | 
30 | CSC[C@@](C)(O)c1cc2cc([N+](=O)[O-])c(C(F)(F)F)cc2[nH]1 | 66 | 
31 | CCSC[C@](C)(O)c1cc2cc(C#N)c(OC)cc2[nH]1 |  | Activity (Rattus norvegicus [1]; Prostate gland): inactive
32 | CCSC[C@](C)(O)c1cc2cc(C#N)c(C(F)(F)F)cc2n1C | 43 | 
33 | CCSC[C@](C)(O)c1cc2cc(C#N)c(C(F)(F)F)cc2n1CC(F)(F)F | 53 | 
34 | CC(O)(CS(=O)(=O)c1ccc(F)cc1)C(=O)Nc1ccc(C#N)c(C(F)(F)F)c1 (configuration not stated) [BICALUTAMIDE] | 75 | ED50 (Rattus norvegicus [2]): > 44 mg/kg; ID50 (Rattus norvegicus [1]): 0.44 mg/day
35 | CCSC[C@](C)(O)c1cc2cc(C#N)c(C(F)(F)F)cc2[nH]1 [listing 2 of 2 here] | 100 | ED50 (Rattus norvegicus [2]): 22 mg/kg; ID50 (Rattus norvegicus [1]): 0.44 mg/day
36 | CCSC[C@](C)(O)c1cc2cc(C)c(C(F)(F)F)cc2[nH]1 | 22 | 
37 | CCSC[C@](C)(O)c1cc2cc(N)c(C(F)(F)F)cc2[nH]1 |  | Activity (Rattus norvegicus [1]; Prostate gland): inactive
38 | CC[S+]([O-])C[C@](C)(O)c1cc2cc(C#N)c(C(F)(F)F)cc2[nH]1 (some centres not stated) | 62 | 
39 | CCSC[C@](C)(O)c1cc2cc(C#N)c(C)cc2[nH]1 |  | Activity (Rattus norvegicus [1]; Prostate gland): inactive
40 | C[C@@](O)(CSCc1ccco1)c1cc2cc([N+](=O)[O-])c(C(F)(F)F)cc2[nH]1 | 46 | 
41 | C[C@@](O)(CSCc1ccccc1)c1cc2cc([N+](=O)[O-])c(C(F)(F)F)cc2[nH]1 | 54 | 
42 | CCc1c([C@@](C)(O)CS(=O)(=O)CC)[nH]c2cc(C(F)(F)F)c(C#N)cc12 |  | half-life [3]: 0.9 h; ID50 (Rattus norvegicus [1]): 1.4 mg/day
43 | CSCC[C@@](C)(O)c1cc2cc([N+](=O)[O-])c(C(F)(F)F)cc2[nH]1 | 44 | 
44 | C[C@@](O)(CSCC(F)(F)F)c1cc2cc([N+](=O)[O-])c(C(F)(F)F)cc2[nH]1 | 46 | 
45 | CC(C)CSC[C@@](C)(O)c1cc2cc([N+](=O)[O-])c(C(F)(F)F)cc2[nH]1 | 75 | 
46 | CCSC[C@](C)(O)c1cc2cc(C#N)c(Cl)cc2[nH]1 | 83 | 
47 | CCSC[C@](C)(O)c1cc2cc([N+](=O)[O-])c(C(F)(F)F)cc2o1 | 38 | 
